Reference: patent US12404304B1, “Telomerase reverse transcriptase (TERT) expression enhancing compounds and methods for using the same” (Sierra Sciences, LLC, priority 2007, dated 2025)

System: viable cells in culture
Assay: Cell viability assay (CellTiter-Glo Luminescent Cell Viability Assay, ATP quantitation, percent of vehicle control)
Protocol: Cell viability is determined using a homogeneous method, such as CellTiter-Glo® Luminescent Cell Viability Assay (Promega Corporation, Madison, WI.) to determine the number of viable cells in culture These assays are based on quantitation of the ATP present, which signals the presence of metabolically active cells. Luminescent values of compound treated cells are compared to that of cells treated with vehicle alone to determine the average cell viability as a percent of control.

SMILES	Average Cell Viability after 24 Hours (% DMSO)
Oc1c(C(Nc2ccccn2)c2cccc(Cl)c2Cl)ccc2cccnc12 (centres unmarked) [compound 1006]	69.78
O=C(NC(c1ccccc1)c1ccc2cccnc2c1O)c1ccccc1 (centres unmarked) [compound 1086]	56.53
CC(=O)NC(c1ccc(Cl)cc1)c1cc([N+](=O)[O-])c2cccnc2c1O (centres unmarked) [compound 1037]	67.96
Cc1ccc(S(=O)(=O)Nc2ccc(O)c3ncccc23)cc1 [compound 1091]	94.30
CCCC(=O)NC(c1cccs1)c1cc([N+](=O)[O-])c2cccnc2c1O (centres unmarked) [compound 1048]	70.37
Cc1ccc(S(=O)(=O)Nc2cc(S(=O)(=O)c3ccc(C)cc3)c(O)c3ncccc23)cc1 [compound 1093]	66.50
Oc1c(C(Nc2ccccn2)c2ccc(Cl)c(Cl)c2)ccc2cccnc12 (centres unmarked) [compound 1082]	56.92
COc1ccc(C(=O)NC(/C=C/c2ccccc2)c2cc(Cl)c3cccnc3c2O)cc1 (centres unmarked) [compound 1016]	42.84
CCC(=O)NC(c1ccco1)c1cc(Cl)c2cccnc2c1O (centres unmarked) [compound 1039]	72.76
CCC(=O)NC(c1ccccc1Cl)c1cc(Cl)c2cccnc2c1O (centres unmarked) [compound 1041]	72.82
CCCCC(=O)NC(c1ccccc1OC)c1cc([N+](=O)[O-])c2cccnc2c1O (centres unmarked) [compound 1027]	62.71
CCC(=O)NC(/C=C/c1ccccc1)c1cc([N+](=O)[O-])c2cccnc2c1O (centres unmarked) [compound 1035]	62.45
CC(C)C(=O)NC(c1ccc2c(c1)OCO2)c1cc([N+](=O)[O-])c2cccnc2c1O (centres unmarked) [compound 1064]	67.37
CC(C)C(=O)NC(c1ccc(C(C)C)cc1)c1cc(Cl)c2cccnc2c1O (centres unmarked) [compound 1062]	60.77
Oc1c(CN2CCN(c3cccc(Cl)c3)CC2)cc(Br)c2cccnc12 [compound 1002]	57.70
COc1ccc(C(=O)NC(c2ccco2)c2cc(Cl)c3cccnc3c2O)cc1 (centres unmarked) [compound 1012]	60.73
CCCC(=O)NC(c1ccco1)c1cc(Cl)c2cccnc2c1O (centres unmarked) [compound 1077]	38.99
CC(=O)NC(c1ccc(C)cc1)c1ccc2cccnc2c1O (centres unmarked) [compound 1024]	95.15
CCOCc1cc(CN2CCCCC2)c(O)c2ncccc12 [compound 1099]	64.22
Cc1ccc2ccc(C(Nc3ccccn3)c3ccccc3Br)c(O)c2n1 (centres unmarked) [compound 1477]	76.49
CCOc1cc(C(NC(C)=O)c2cc([N+](=O)[O-])c3cccnc3c2O)ccc1O (centres unmarked) [compound 1033]	84.43
COc1ccc(C(NC(C)=O)c2ccc3cccnc3c2O)cc1OC (centres unmarked) [compound 1023]	75.33

SMILES	Average Cell Viability after 24 Hours (% DMSO)
CCCCC(=O)NC(c1ccco1)c1cc([N+](=O)[O-])c2cccnc2c1O (centres unmarked) [compound 1055]	57.43
CCCOCc1cc(CN2CCCCC2)c(O)c2ncccc12 [compound 1100]	56.10
CCC(=O)NC(c1ccc(N(C)C)cc1)c1ccc2cccnc2c1O (centres unmarked) [compound 1001]	44.55
COCc1cc(CN2CCCCC2)c(O)c2ncccc12 [compound 1098]	68.58
CC(C)C(=O)NC(c1ccccc1)c1cc([N+](=O)[O-])c2cccnc2c1O (centres unmarked) [compound 1479]	68.20
COc1cccc(C(=O)NC(/C=C/c2ccccc2)c2cc(Cl)c3cccnc3c2O)c1 (centres unmarked) [compound 1017]	75.48
CCC(=O)NC(c1ccccc1Cl)c1cc([N+](=O)[O-])c2cccnc2c1O (centres unmarked) [compound 1074]	75.55
CC(C)C(=O)NC(c1ccc(Cl)cc1Cl)c1ccc2cccnc2c1O (centres unmarked) [compound 1042]	55.51
CCC(=O)NC(c1ccc(OC)c(OC)c1)c1cc(Cl)c2cccnc2c1O (centres unmarked) [compound 1032]	75.67
COc1ccc(C(NC(=O)C2CCCCC2)c2cc([N+](=O)[O-])c3cccnc3c2O)cc1OC (centres unmarked) [compound 1072]	78.35
CCC(=O)NC(c1ccccc1OC)c1cc([N+](=O)[O-])c2cccnc2c1O (centres unmarked) [compound 1051]	65.27
CCCCC(=O)NC(c1ccc(OC)c(OC)c1)c1cc([N+](=O)[O-])c2cccnc2c1O (centres unmarked) [compound 1053]	59.77
CCCCC(=O)NC(c1ccc(OC)cc1)c1cc([N+](=O)[O-])c2cccnc2c1O (centres unmarked) [compound 1040]	61.11
O=C(NC(c1ccc(Cl)cc1)c1ccc2cccnc2c1O)C1CCCCC1 (centres unmarked) [compound 1045]	60.30
CCCCC(=O)NC(c1cccs1)c1cc([N+](=O)[O-])c2cccnc2c1O (centres unmarked) [compound 1063]	85.12
O=C(CCc1ccccc1)NC(c1ccc2c(c1)OCO2)c1ccc2cccnc2c1O (centres unmarked) [compound 1065]	61.72
COCc1cc(CN2CCCC2)c(O)c2ncccc12 [compound 1097]	78.08
Cc1ccc(C(NC(=O)C(C)C)c2ccc3cccnc3c2O)cc1 (centres unmarked) [compound 1088]	55.87
CCCC(=O)NC(c1ccc(N(CC)CC)cc1)c1cc(Cl)c2cccnc2c1O (centres unmarked) [compound 1070]	69.71
Oc1c(C(Nc2ccccn2)c2ccccc2Br)ccc2cccnc12 (centres unmarked) [compound 1007]	68.00
COC(=O)c1ccc(C(Nc2cc(C)ccn2)c2ccc3ccc(C)nc3c2O)cc1 (centres unmarked) [compound 1008]	67.58
CC(C)C(=O)NC(c1ccco1)c1ccc2cccnc2c1O (centres unmarked) [compound 1087]	72.33

SMILES	Average Cell Viability after 24 Hours (% DMSO)
O=C(COc1ccccc1)NC(/C=C/c1ccccc1)c1cc(Cl)c2cccnc2c1O (centres unmarked) [compound 1015]	74.68
CC(C)OCc1cc(CN2CCCCC2)c(O)c2ncccc12 [compound 1102]	68.56
COc1ccc(C(NC(=O)C(C)C)c2cc([N+](=O)[O-])c3cccnc3c2O)cc1 (centres unmarked) [compound 1073]	80.10
O=S1(=O)CCC(N2COc3c(cc(Cl)c4cccnc34)C2)C1 (centres unmarked) [compound 1462]	62.26
CCCCC(=O)NC(c1cccs1)c1cc(Cl)c2cccnc2c1O (centres unmarked) [compound 1067]	49.62
O=C(CCc1ccccc1)NC(c1ccc(Cl)cc1)c1ccc2cccnc2c1O (centres unmarked) [compound 1478]	72.44
CCCCC(=O)NC(c1ccccc1Cl)c1cc([N+](=O)[O-])c2cccnc2c1O (centres unmarked) [compound 1031]	76.88
CCN(CC)c1ccc(C(NC(=O)C(C)C)c2ccc3cccnc3c2O)cc1 (centres unmarked) [compound 1060]	63.44
COc1cccc(C(=O)NC(c2ccc(OC)c(OC)c2)c2cc(Cl)c3cccnc3c2O)c1 (centres unmarked) [compound 1013]	74.96
CCCC(=O)NC(c1ccc(N(C)C)cc1)c1cc(Cl)c2cccnc2c1O (centres unmarked) [compound 1066]	72.46
CCCCC(=O)NC(c1ccc2c(c1)OCO2)c1cc([N+](=O)[O-])c2cccnc2c1O (centres unmarked) [compound 1046]	78.00
COc1cc(C(Nc2ccccn2)c2ccc3cccnc3c2O)cc(Br)c1OC (centres unmarked) [compound 1005]	64.80
CC(=O)NC(c1ccc(C(C)C)cc1)c1cc(Cl)c2cccnc2c1O (centres unmarked) [compound 1057]	50.02
Cc1ccc(C(NC(=O)C2CCCCC2)c2ccc3cccnc3c2O)cc1 (centres unmarked) [compound 1047]	69.78
CCCCC(=O)NC(c1ccc(OC)cc1)c1cc(Cl)c2cccnc2c1O (centres unmarked) [compound 1061]	62.27
Oc1c(C(Nc2ccccn2)c2ccc(OC3CCCC3)cc2)ccc2cccnc12 (centres unmarked) [compound 1004]	54.71
CCCC(=O)NC(c1ccc(C(C)C)cc1)c1cc([N+](=O)[O-])c2cccnc2c1O (centres unmarked) [compound 1056]	65.75
Oc1ccc(CN2CCN(c3cccc(Cl)c3)CC2)c2cccnc12 [compound 1482]	80.49
CCC(=O)NC(c1ccccc1OC)c1cc(Cl)c2cccnc2c1O (centres unmarked) [compound 1043]	47.47
Oc1c(Cl)cc(Cl)c2cccnc12 [compound 1020]	25.10
CCN(CC)c1ccc(C(NC(=O)C(C)C)c2cc(Cl)c3cccnc3c2O)cc1 (centres unmarked) [compound 1011]	64.50
